The target in series [1] is T1, NEP (neutral endopeptidase EC.3.4.24.11), native enzyme isolated from kidneys (Homo sapiens, UniProt P08473).
T1 construct: NEP is isolated from kidneys following the method described by Kenny and Booth; from tissue
Nature of the series: Assay of NEP peptidase activity (fluorogenic peptide substrate), IC50 determination. The class given is biochemical. Particulars: read-out: activity against NEP expressed as an IC50. How it is done:
Production of Native NEP Enzyme:
NEP is isolated from kidneys following the method described by Kenny and Booth (Booth, A. G. & Kenny, A. J. (1974) Biochem. J. 142, 575-581).
Assay of SEP or NEP Peptidase Activity
The peptidase activity of SEP or NEP is measured by monitoring its ability to proteolyse the synthetic peptide substrate Rhodamine green-Gly-Gly-dPhe-Leu-Arg-Arg-Val-Cys(QSY7)-βAla-NH2:
Reagents for the assay are first prepared as follows:
A substrate solution is made up by diluting a 2 mM/100% DMSO Rhodamine green-Gly-Gly-dPhe-Leu-Arg-Arg-Val-Cys(QSY7)-βAla-NH2 stock solution in 50 mM HEPES buffer pH7.4 (Sigma, UK) at a concentration of 2 μM.
An aliquot of SEP or NEP enzyme described above is thawed then diluted in 50 mM HEPES, pH7.4 containing 1 EDTA free protease inhibitor cocktail tablet (Roche Diagnostics, UK) per 25 ml. […]
(§1) In a black 384 well microtitre plate, 15 μl of enzyme solution is added to 15 μl of 4% DMSO solution. […] Following incubation a fluorescence measurement is taken (Ex485/Em538). BMG galaxy fluorescence reader (BMG Lab technologies, Offenberg, Germany).
(§2) The proteolytic activity of the enzyme corresponds to the fluorescence of the sample minus the fluorescence of the non-specific background blank.
(§3) A fluorescence measurement taken from 60 μl of product in a well on an identical microtitre plate may be taken. […]

Series [2] deals with T2, Recombinant SEP (soluble secreted endopeptidase) (Homo sapiens, UniProt Q495T6).
T2 construct: made in house
T2 sequence (Q495T6 75-779 limits assumed): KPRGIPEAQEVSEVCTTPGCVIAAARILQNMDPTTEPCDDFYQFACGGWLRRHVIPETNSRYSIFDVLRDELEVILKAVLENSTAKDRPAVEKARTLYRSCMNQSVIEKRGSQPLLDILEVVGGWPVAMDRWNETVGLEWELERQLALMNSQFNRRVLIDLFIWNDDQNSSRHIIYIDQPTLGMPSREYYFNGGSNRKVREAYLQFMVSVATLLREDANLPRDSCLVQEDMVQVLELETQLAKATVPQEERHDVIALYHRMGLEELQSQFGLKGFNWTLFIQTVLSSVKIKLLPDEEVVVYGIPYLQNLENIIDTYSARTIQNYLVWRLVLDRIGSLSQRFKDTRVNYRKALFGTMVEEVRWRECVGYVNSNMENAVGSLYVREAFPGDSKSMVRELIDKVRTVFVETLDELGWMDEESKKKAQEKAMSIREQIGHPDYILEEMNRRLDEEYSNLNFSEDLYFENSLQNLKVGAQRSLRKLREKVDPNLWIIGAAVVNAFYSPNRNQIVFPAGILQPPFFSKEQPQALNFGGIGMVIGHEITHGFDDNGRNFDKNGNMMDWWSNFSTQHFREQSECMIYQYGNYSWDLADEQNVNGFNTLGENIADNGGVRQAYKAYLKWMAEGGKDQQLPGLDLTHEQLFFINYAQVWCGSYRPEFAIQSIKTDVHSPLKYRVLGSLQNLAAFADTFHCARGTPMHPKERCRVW
Nature of the series: Assay of SEP peptidase activity (fluorogenic peptide substrate), IC50 determination. The class given is biochemical. The following applies: ratio of SEP to NEP inhibition. The procedure: Recombinant SEP enzyme is produced using one of two alternative methods:
Method 1: A culture of Chinese Hamster Ovary (CHO) cells is transfected with the plasmid NCIMB deposit number 41110 using the lipofectamine method as described in the lipofectamine reagent protocol (Invitrogen Ltd, Paisley, UK). The cell media is harvested at 24 or 48 hours post transfection, and cleared of cell debris by centrifugation at 3000 g for 5 min. The media is then dialyzed overnight at 4° C. against 50 mM HEPES pH7.4/10% glycerol, using a “slide a lyser” from Pierce and Warner, Chester UK. The dialyzed sample is then frozen in aliquots and stored under liquid nitrogen. […]
The peptidase activity of SEP or NEP is measured by monitoring its ability to proteolyse the synthetic peptide substrate Rhodamine green-Gly-Gly-dPhe-Leu-Arg-Arg-Val-Cys(QSY7)-βAla-NH2: […]
as §1, §2, §3

This note sets out measurements from patent US20040180941A1, “3-(1-[3-(1,3-Benzothiazol-6-yl)propylcarbamoyl]cycloalkyl)propanoic acid derivatives as NEP inhibitors” (Pfizer Inc, priority 2003, published 2004).

The structures appear in SMILES notation.

As usually defined, the melting point is the temperature, or range, at which the solid turns liquid. By IC50 is commonly meant the concentration that gives 50% inhibition.

T1 sequence (P08473 whole entry): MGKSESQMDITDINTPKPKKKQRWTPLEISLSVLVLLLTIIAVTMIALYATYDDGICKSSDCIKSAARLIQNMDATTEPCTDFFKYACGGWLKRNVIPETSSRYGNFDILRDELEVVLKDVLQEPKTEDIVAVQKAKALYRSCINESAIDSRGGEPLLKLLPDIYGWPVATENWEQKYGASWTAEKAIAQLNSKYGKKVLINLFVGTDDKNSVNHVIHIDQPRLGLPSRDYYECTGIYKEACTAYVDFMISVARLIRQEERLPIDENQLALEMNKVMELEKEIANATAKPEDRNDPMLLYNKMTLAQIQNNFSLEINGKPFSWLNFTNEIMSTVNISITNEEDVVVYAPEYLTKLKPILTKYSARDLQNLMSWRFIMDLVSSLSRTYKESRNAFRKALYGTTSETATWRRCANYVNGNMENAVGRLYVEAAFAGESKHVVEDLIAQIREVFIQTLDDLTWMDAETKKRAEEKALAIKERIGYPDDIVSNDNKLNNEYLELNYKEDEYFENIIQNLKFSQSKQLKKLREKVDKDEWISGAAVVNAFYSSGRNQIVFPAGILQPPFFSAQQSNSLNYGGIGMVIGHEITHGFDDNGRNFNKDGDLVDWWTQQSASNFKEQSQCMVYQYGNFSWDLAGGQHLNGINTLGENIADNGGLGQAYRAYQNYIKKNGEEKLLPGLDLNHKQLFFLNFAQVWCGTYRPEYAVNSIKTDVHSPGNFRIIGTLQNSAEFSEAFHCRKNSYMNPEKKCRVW

In turn, `CCc1nc2ccc(CCCNC(=O)C3(CCC(=O)O)CCCC3)cc2s1` [Example 2, 3-(1-{[3-(2-ethyl-1,3-benzothiazol-6-yl)propyl]carbamoyl}cyclopentyl)propanoic acid] returned a melting point of 127.5 to 129.5 °C.

`Cc1nc2ccc(CCCNC(=O)C3(C[C@@H](C)C(=O)O)CCCC3)cc2s1` [Example 1, (R)-2-Methyl-3-(1-{[3-(2-methyl-1,3-benzothiazol-6-yl)propyl]carbamoyl}cyclopentyl)propanoic acid] had a melting point of 105 to 106 °C. In addition, in series [1], the IC50 came out at 1 nM. For the same compound, the “selectivity for NEP over SEP” value in series [2] amounted to 1900 fold.
